Results from patent US8450270B2 (Indiana University Research and Technology Corporation, priority 2008, dated 2013).
One block for each molecule: values may come before it. Square brackets hold non-standard residues; d marks the D form. Ends that are not written are not given here. Peptide text beside a SMILES is read from it. Dab = NCC[C@H](N)C(=O)O; Aib = CC(C)(N)C(=O)O

What was measured:
[1] = Glucagon solubility assay; type: physicochemical
Glucagon Receptor = Glucagon Receptor (Homo sapiens, UniProt P47871); experiment: Functional assay-cAMP synthesis (luciferase reporter, HEK293), glucagon receptor; settings: for % activity*: glucagon receptor
Glucagon Receptor, sequence (P47871 26-477): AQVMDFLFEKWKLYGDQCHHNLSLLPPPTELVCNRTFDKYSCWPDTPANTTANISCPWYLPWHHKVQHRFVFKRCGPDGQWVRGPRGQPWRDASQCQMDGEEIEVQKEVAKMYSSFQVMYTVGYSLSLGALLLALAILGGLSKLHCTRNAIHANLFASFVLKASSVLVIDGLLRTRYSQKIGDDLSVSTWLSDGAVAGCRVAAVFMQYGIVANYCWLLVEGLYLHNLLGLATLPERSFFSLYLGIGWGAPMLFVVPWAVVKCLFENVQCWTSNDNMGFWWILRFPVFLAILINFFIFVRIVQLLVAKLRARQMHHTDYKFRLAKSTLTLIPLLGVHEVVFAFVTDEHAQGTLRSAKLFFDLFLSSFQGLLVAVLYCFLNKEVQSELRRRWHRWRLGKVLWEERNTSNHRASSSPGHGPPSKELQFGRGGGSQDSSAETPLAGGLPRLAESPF

GLP-1 Receptor = GLP-1 Receptor (Homo sapiens, UniProt P43220); experiment: Functional assay-cAMP synthesis (luciferase reporter, HEK293), GLP-1 receptor
GLP-1 Receptor, sequence (P43220 24-463, species assumed): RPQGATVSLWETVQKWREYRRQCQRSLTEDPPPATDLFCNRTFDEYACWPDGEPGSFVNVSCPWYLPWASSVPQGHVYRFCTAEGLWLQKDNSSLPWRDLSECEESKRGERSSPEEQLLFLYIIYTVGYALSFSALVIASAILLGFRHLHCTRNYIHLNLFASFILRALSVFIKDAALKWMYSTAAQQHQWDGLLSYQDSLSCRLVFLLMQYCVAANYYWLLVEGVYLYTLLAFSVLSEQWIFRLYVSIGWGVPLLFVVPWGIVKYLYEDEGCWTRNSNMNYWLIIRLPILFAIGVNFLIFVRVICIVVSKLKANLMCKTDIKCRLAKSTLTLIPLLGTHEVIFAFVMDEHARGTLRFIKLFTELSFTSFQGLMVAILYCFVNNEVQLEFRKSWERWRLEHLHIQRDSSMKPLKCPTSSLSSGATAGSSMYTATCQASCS

[2] = EC50 at Glucagon Receptor (nM), Table 7

Molecule: HSQGTFTSDYSKYLESRRAQDFVQWLMDT [D28, E15]
solubility relative to native glucagon ([1]; pH values of 5.5 and 7.0, FIGS. 3 & 4): superior solubility

Molecule: CSCC[C@H](NC(=O)[C@H](CC(C)C)NC(=O)[C@H](Cc1c[nH]c2ccccc12)NC(=O)[C@H](CCC(N)=O)NC(=O)[C@@H](NC(=O)[C@H](Cc1ccccc1)NC(=O)[C@H](CC(=O)O)NC(=O)[C@H](CCC(N)=O)NC(=O)[C@H](C)NC(=O)[C@H](CCCNC(=N)N)NC(=O)[C@H](CCCNC(=N)N)NC(=O)[C@H](CO)NC(=O)[C@H](CC(=O)O)NC(=O)[C@H](CC(C)C)NC(=O)[C@H](Cc1ccc(O)cc1)NC(=O)[C@H](CCCCN)NC(=O)[C@H](CO)NC(=O)[C@H](Cc1ccc(O)cc1)NC(=O)[C@H](CC(=O)O)NC(=O)[C@H](CO)NC(=O)[C@@H](NC(=O)[C@H](Cc1ccccc1)NC(=O)[C@@H](NC(=O)CNC(=O)[C@H](CCC(N)=O)NC(=O)[C@H](CO)NC(=O)[C@@H](N)Cc1c[nH]cn1)[C@@H](C)O)[C@@H](C)O)C(C)C)C(=O)N[C@@H](CC(=O)O)C(=O)N[C@@H](CCC(=O)O)C(=O)O [D28, E29]
EC50 (Glucagon Receptor; EC50 at the glucagon receptor, Example 20): 0.06 nM

Molecule: CCCCCCCCCCCCCC(=O)NCCCC[C@H](NC(=O)[C@H](CC(=O)O)NC(=O)[C@H](CO)NC(=O)[C@@H](NC(=O)[C@H](Cc1ccccc1)NC(=O)[C@@H](NC(=O)CNC(=O)[C@H](CCC(N)=O)NC(=O)[C@@H](CO)NC(=O)[C@@H](N)Cc1c[nH]cn1)[C@@H](C)O)[C@@H](C)O)C(=O)N[C@@H](CO)C(=O)N[C@@H](CCCCN)C(=O)N[C@@H](Cc1ccc(O)cc1)C(=O)N[C@@H](CC(C)C)C(=O)N[C@@H](CC(=O)O)C(=O)N[C@@H](CCC(=O)O)C(=O)N[C@@H](CCCNC(=N)N)C(=O)N[C@@H](CCCNC(=N)N)C(=O)N[C@@H](C)C(=O)N[C@@H](CCCCN)C(=O)N[C@@H](CC(=O)O)C(=O)N[C@@H](Cc1ccccc1)C(=O)N[C@H](C(=O)N[C@@H](CCC(N)=O)C(=O)N[C@@H](Cc1c[nH]c2ccccc12)C(=O)N[C@@H](CC(C)C)C(=O)N[C@@H](CCSC)C(=O)N[C@@H](CC(N)=O)C(=O)N[C@H](C(N)=O)[C@@H](C)O)C(C)C [Peptide dS2K10(C14)E16K20-Gluc Amide, HXQGTFTSDKSKYLDERRAKDFVQWLMNT-amide]
EC50 (GLP-1 Receptor): 0.041 nM

Molecule: CCCCCCCCCCCCCCCC(=O)NCCCC[C@H](NC(=O)[C@H](CC(=O)O)NC(=O)[C@H](CO)NC(=O)[C@@H](NC(=O)[C@H](Cc1ccccc1)NC(=O)[C@@H](NC(=O)CNC(=O)[C@H](CCC(N)=O)NC(=O)[C@@H](CO)NC(=O)[C@@H](N)Cc1c[nH]cn1)[C@@H](C)O)[C@@H](C)O)C(=O)N[C@@H](CO)C(=O)N[C@@H](CCCCN)C(=O)N[C@@H](Cc1ccc(O)cc1)C(=O)N[C@@H](CC(C)C)C(=O)N[C@@H](CC(=O)O)C(=O)N[C@@H](CCC(=O)O)C(=O)N[C@@H](CCCNC(=N)N)C(=O)N[C@@H](CCCNC(=N)N)C(=O)N[C@@H](C)C(=O)N[C@@H](CCCCN)C(=O)N[C@@H](CC(=O)O)C(=O)N[C@@H](Cc1ccccc1)C(=O)N[C@H](C(=O)N[C@@H](CCC(N)=O)C(=O)N[C@@H](Cc1c[nH]c2ccccc12)C(=O)N[C@@H](CC(C)C)C(=O)N[C@@H](CCSC)C(=O)N[C@@H](CC(N)=O)C(=O)N[C@H](C(N)=O)[C@@H](C)O)C(C)C [Peptide dS2K10(C16)E16K20-Gluc Amide, HXQGTFTSDKSKYLDERRAKDFVQWLMNT-amide]
EC50 (GLP-1 Receptor): 0.041 nM

Molecule: Glucagon, Cys17PEG5K: Glucagon Cys17(1-29) reacted with methoxy poly(ethyleneglycol) maleimide avg. M.W.5000
Percent Soluble ([1]; pH 7): 94%

More lines, now with the values ahead:

% activity* (Glucagon Receptor; Table 8, wildtype glucagon = 100): 54%
Molecule: CC(=O)NCC[C@H](NC(=O)[C@H](CO)NC(=O)[C@@H](N)Cc1c[nH]cn1)C(=O)NCC(=O)N[C@H](C(=O)N[C@@H](Cc1ccccc1)C(=O)N[C@H](C(=O)N[C@@H](CO)C(=O)N[C@@H](CC(=O)O)C(=O)N[C@@H](Cc1ccc(O)cc1)C(=O)N[C@@H](CO)C(=O)N[C@@H](CCCCN)C(=O)N[C@@H](Cc1ccc(O)cc1)C(=O)N[C@@H](CC(C)C)C(=O)N[C@@H](CC(=O)O)C(=O)NC(C)(C)C(=O)N[C@@H](CCCNC(=N)N)C(=O)N[C@@H](CCCNC(=N)N)C(=O)N[C@@H](C)C(=O)N[C@@H](CO)C(=O)N[C@@H](CC(=O)O)C(=O)N[C@@H](Cc1ccccc1)C(=O)N[C@H](C(=O)N[C@@H](CO)C(=O)N[C@@H](Cc1c[nH]c2ccccc12)C(=O)N[C@@H](CC(C)C)C(=O)N[C@@H](CC(C)C)C(=O)N[C@@H](CC(=O)O)C(=O)N[C@@H](CCC(=O)O)C(=O)O)C(C)C)[C@@H](C)O)[C@@H](C)O [SEQ ID NO: 73] (H-HS[Dab](Ac)GTFTSDYSKYLD[Aib]RRASDFVSWLLDE-OH; N-terminus and C-terminus assumed)

EC50 (Glucagon Receptor; [2]): 0.18 nM | % activity* (Glucagon Receptor; Table 7): 33%
Molecule: CCCC[C@H](NC(=O)[C@H](CC(C)C)NC(=O)[C@H](Cc1c[nH]c2ccccc12)NC(=O)[C@H](C)NC(=O)[C@@H](NC(=O)[C@H](Cc1ccccc1)NC(=O)[C@H](CCC(=O)O)NC(=O)[C@H](C)NC(=O)[C@H](C)NC(=O)[C@H](CCCNC(=N)N)NC(=O)[C@H](CCCNC(=N)N)NC(=O)[C@@H](NC(=O)[C@H](CC(=O)O)NC(=O)[C@H](CC(C)C)NC(=O)[C@H](Cc1ccc(O)cc1)NC(=O)[C@H](CCCCN)NC(=O)[C@H](CO)NC(=O)[C@H](Cc1ccc(O)cc1)NC(=O)[C@H](CC(=O)O)NC(=O)[C@H](CO)NC(=O)[C@@H](NC(=O)[C@H](Cc1ccccc1)NC(=O)[C@@H](NC(=O)CNC(=O)[C@H](CSCNC(C)=O)NC(=O)[C@H](CO)NC(=O)[C@@H](N)Cc1c[nH]cn1)[C@@H](C)O)[C@@H](C)O)[C@@H](C)O)C(C)C)C(=O)N[C@@H](CC(=O)O)C(=O)N[C@@H](CCC(=O)O)C(=O)O [SEQ ID NO: 62]

glucagon activity (cAMP induction) (Glucagon Receptor; FIG. 11): retains substantial glucagon activity | % activity* (Glucagon Receptor; Table 7): 25%
Molecule: CCCC[C@H](NC(=O)[C@H](CC(C)C)NC(=O)[C@H](Cc1c[nH]c2ccccc12)NC(=O)[C@H](C)NC(=O)[C@@H](NC(=O)[C@H](Cc1ccccc1)NC(=O)[C@H](CCC(=O)O)NC(=O)[C@H](C)NC(=O)[C@H](C)NC(=O)[C@H](CCCNC(=N)N)NC(=O)[C@H](CCCNC(=N)N)NC(=O)[C@@H](NC(=O)[C@H](CC(=O)O)NC(=O)[C@H](CC(C)C)NC(=O)[C@H](Cc1ccc(O)cc1)NC(=O)[C@H](CCCCN)NC(=O)[C@H](CO)NC(=O)[C@H](Cc1ccc(O)cc1)NC(=O)[C@H](CC(=O)O)NC(=O)[C@H](CO)NC(=O)[C@@H](NC(=O)[C@H](Cc1ccccc1)NC(=O)[C@@H](NC(=O)CNC(=O)[C@H](CCC(N)=O)NC(=O)[C@H](CO)NC(=O)[C@@H](N)Cc1c[nH]cn1)[C@@H](C)O)[C@@H](C)O)[C@@H](C)O)C(C)C)C(=O)N[C@@H](CC(=O)O)C(=O)N[C@@H](CCC(=O)O)C(=O)O [SEQ ID NO: 61]

% activity* (Glucagon Receptor; Table 7): 86%
Molecule: CSCC[C@H](NC(=O)[C@H](CC(C)C)NC(=O)[C@H](Cc1c[nH]c2ccccc12)NC(=O)[C@H](C)NC(=O)[C@@H](NC(=O)[C@H](Cc1ccccc1)NC(=O)[C@H](CC(=O)O)NC(=O)[C@H](C)NC(=O)[C@H](C)NC(=O)[C@H](CCCNC(=N)N)NC(=O)[C@H](CCCNC(=N)N)NC(=O)C(C)(C)NC(=O)[C@H](CC(=O)O)NC(=O)[C@H](CC(C)C)NC(=O)[C@H](Cc1ccc(O)cc1)NC(=O)[C@H](CCCCN)NC(=O)[C@H](CO)NC(=O)[C@H](Cc1ccc(O)cc1)NC(=O)[C@H](CC(=O)O)NC(=O)[C@H](CO)NC(=O)[C@@H](NC(=O)[C@H](Cc1ccccc1)NC(=O)[C@@H](NC(=O)CNC(=O)[C@H](CCNC(C)=O)NC(=O)[C@H](CO)NC(=O)[C@@H](N)Cc1c[nH]cn1)[C@@H](C)O)[C@@H](C)O)C(C)C)C(=O)N[C@@H](CC(=O)O)C(=O)N[C@@H](CCC(=O)O)C(=O)O [SEQ ID NO: 69]

EC50 (Glucagon Receptor; [2]): 0.48 nM | % activity* (Glucagon Receptor; Table 7): 13%
Molecule: CCCC[C@H](NC(=O)[C@H](CC(C)C)NC(=O)[C@H](Cc1c[nH]c2ccccc12)NC(=O)[C@H](C)NC(=O)[C@@H](NC(=O)[C@H](Cc1ccccc1)NC(=O)[C@H](CCC(=O)O)NC(=O)[C@H](C)NC(=O)[C@H](C)NC(=O)[C@H](CCCNC(=N)N)NC(=O)[C@H](CCCNC(=N)N)NC(=O)[C@@H](NC(=O)[C@H](CC(=O)O)NC(=O)[C@H](CC(C)C)NC(=O)[C@H](Cc1ccc(O)cc1)NC(=O)[C@H](CCCCN)NC(=O)[C@H](CO)NC(=O)[C@H](Cc1ccc(O)cc1)NC(=O)[C@H](CC(=O)O)NC(=O)[C@H](CO)NC(=O)[C@@H](NC(=O)[C@H](Cc1ccccc1)NC(=O)[C@@H](NC(=O)CNC(=O)[C@H](CCC(=O)NC)NC(=O)[C@H](CO)NC(=O)[C@@H](N)Cc1c[nH]cn1)[C@@H](C)O)[C@@H](C)O)[C@@H](C)O)C(C)C)C(=O)N[C@@H](CC(=O)O)C(=O)N[C@@H](CCC(=O)O)C(=O)O [SEQ ID NO: 65]
